The assay has as its system human umbilical vein endothelial cells (HUVEC).

No end group written: not given here.

One may read the IC50 as the concentration needed to halve the response being measured. A low value points to inhibition by little substance.

Turning to “GHGHGHGKHKNKGKKN-OH [SEQ ID NO:8, Gly-His-Gly-His-Gly-His-Gly-Lys-His-Lys-Asn-Lys-Gly-Lys-Lys-Asn]”, the IC50 is 8 µM.
“HKNKGKKNGKHNGWKT-OH [SEQ ID NO:9, His-Lys-Asn-Lys-Gly-Lys-Lys-Asn-Gly-Lys-His-Asn-Gly-Trp-Lys-Thr]” had an IC50 of 14 µM.

These data come from US6767889B1, “Inhibition of angiogenesis by high molecular weight kininogen and peptide analogs thereof” (Temple University of the Commonwealth System of Higher …, priority 1998, dated 2004).
